This is an account of results in patent US20220387472A1, “COMPOSITIONS AND METHODS FOR TREATING CANCER” (AIM ImmunoTech Inc., priority 2020, published 2022).

The test system of data set [1] is Pancreatic Adenocarcinoma. As to conditions: cited from earlier work.
Data set [2] is described as follows: Clinical safety and tolerability of tdsRNA (rintatolimod). The format is in vivo, human. Conditions: for Tolerability: twice weekly infusions. An excerpt: tdsRNA (e.g., Rintatolimod) has undergone extensive clinical and preclinical testing. […] Favorable safety profiles have been seen for intraperitoneal, intravenous, and intranasal routes of administration of tdsRNA.
Our analysis and previous studies have shown that […]® has a very good safety profile. […]® lacks the potent toxicities seen with most chemotherapeutic agents. See, e.g., […]®'s safety profile in other parts of this disclosure. […] Thus, we believe the ideal use of […]® would be to continue therapy beyond 18 weeks until time of tumor progression. We believe this approach could add an additional 4 to 6 months or more to the overall survival (OS) benefit.

Details of data set [3]: species or system Humans. As to conditions: human, in vivo, 6 mg/kg. The procedure: (§1) Ampligen® has undergone extensive preclinical safety testing including 18 animal (mice, rat, rabbit, dog, and monkey) toxicity studies; 6 animal (rat and rabbit) reproductive studies, and 2 animal (rat, monkey) PK/PD studies. The MTD for humans and NHPs is >10 mg/kg and >36 mg/kg, respectively.

The test system of data set [4] is metastatic or locally advanced pancreatic carcinoma. Kind of data set: Survival of pancreatic cancer patients given […] following FOLFIRINOX vs matched historical control group. As to conditions: n = 27 per group, from start of FOLFIRINOX, control: FOLFIRINOX only (historical); for Median Overall Survival: AMPLIGEN i.v. 200 mg twice weekly for 2 weeks, then 400 mg twice weekly, 18 weeks total, following FOLFIRINOX
The format is in vivo, human. The procedure: In this case, the tdsRNA used is rintatolimod ([…]®) which is a form of tdsRNA. Included in the study were adults with metastatic or locally advanced pancreatic carcinoma following FOLFIRINOX treatment. The tdsRNA treatment was rintatolimod ([…]®) administered i.v. 200 mg twice weekly for 2 weeks, then 400 mg twice weekly for a total treatment duration of 18 weeks.
The experiment compared survival in the experimental […]® cohort (n=27) compared to a historical control group (n=27) matched for age, gender, disease stage and number of cycles of FOLFIRINOX.
To be selected for the study, the patient should be over 18 years in age and diagnosed with locally advanced pancreatic cancer (LAPC) or metastasized pancreatic cancer. These LACP patients were not candidates for surgical resection. The patient should have completed the standard of care (e.g., A FOLFIRINOX regimen) and the patient should have no progressive disease (as detected by computed tomography (CT) 6 weeks after treatment). Patients with second malignancy (simultaneous), on immunosuppressive medication, or having liver-renal insufficiency were excluded.
Survival analysis was performed as follows. A group of 136 patients was assembled from a retrospective database, including all patients who received FOLFIRINOX between 2012-2018. Variables that were matched include age (+ or −10 years); gender; disease stage (locally advanced pancreatic cancer (LAPC), metastasized, metastasized after resection); and the number of FOLFIRINOX cycles to obtain a historical control group that was well-matched to the experimental group. The outcomes were determined from the start of FOLFIRINOX, and the overall survival and progression-free survival were calculated.

The conditions of data set [5]: cynomolgus monkey, in vivo, 6 mg/kg. The procedure: as §1
A short description of data set [6]: Maximum tolerated dose (MTD) in humans. It counts as in vivo. Here is the method: as §1
Data set [7] in a line: Maximum tolerated dose (MTD) in NHP. It counts as in vivo. Conditions: NHP (Cynomolgus monkey). Here is the method: as §1
Setting [8] is: clinical trials enrolling over 1,200 patients, over 100,000 doses.

Values joined by “and” are separate entries in the source; they are usually repeats but may differ in a detail not shown here. Identical values can stand only once. Like-named read-outs stand apart in the source and are kept apart here.

As for `O=C(c1cc(Cc2n[nH]c(=O)c3ccccc23)ccc1F)N1CCN(C(=O)C2CC2)CC1` [Lynparza], the OS Over Control in data set [1] (Second-Line Therapy, median OS over the control arm) is 3.6 months.
For the molecule rIn.r(C12U)n, the Drug-related deaths result in data set [2] (setting [8]) is “no drug-related deaths”. Besides, the Tolerability result in data set [2] (setting [8]) is given as “generally well-tolerated”; in data set [2] (clinical trials enrolling over 1,200 patients, over 100,000 doses, listed as Ampligen), “generally well-tolerated”; in data set [2] (clinical trials enrolling over 1,200 patients, over 100,000 doses, listed as Rintatolimod), “well-tolerated”. Besides, the Cumulative toxicities result in data set [2] (human, in vivo) is “no evidence of any cumulative toxicities”. Also, in data set [2] (two placebo-controlled, randomized studies), the “Serious adverse events compared to placebo” value is recorded as “no increase in serious adverse events compared to placebo”. In addition, the Half-Life in data set [3] is listed as 36.5 min; in data set [5] it was 22.9 min. Besides, the “Median Progression-free Survival” value in data set [4] (AMPLIGEN following FOLFIRINOX) turned out to be 12.0 months. For the same molecule, the “Median Overall Survival” value in data set [4] was 19.0 months and 19 months; in data set [4] (listed as Ampligen), 19 months. Also, the MTD in data set [6] (based on 1200 mg BIW (cancer)) was 17 mg/kg; in data set [6] (based on randomized, well-controlled 24 week study in HIV disease), over 10 mg/kg; in data set [7] (based on 4 weeks), 100 mg/kg; in data set [7] (based on 24 weeks) it was over 36 mg/kg.
Consider `Nc1ccn([C@@H]2O[C@H](CO)[C@@H](O)C2(F)F)c(=O)n1` [gemcitabine], for which, in data set [1] (First-Line Therapy, median overall survival), the “OS Months” value was 6.7 Months and 6.0 Months and 6.8 Months.
